“Also recorded” adds a separate entry of the source. Read-outs that look alike come from different tables or passages of the source.
How the values were obtained:
[1] = tested on: rats with percussion-TBI; test: Percussion-TBI model: spontaneous forelimb use and spontaneous vertical exploration; format: in vivo, rat
From the text: (§1) Young adult male Long-Evans rats, 240-280 gm, were studied. Rats were anesthetized (Ketamine and Xylazine) and physiological parameters including temperature and blood gases were maintained within appropriate physiological ranges. With the head fixed in a stereotaxic frame, a 6-mm circular craniectomy was created abutting the sagittal and lambdoidal sutures. A posterior location was chosen to emphasize damage to underlying hippocampus (Vink et al., 2001; Floyd et al., 2002). […] Sham controls underwent craniectomy without percussion.
Spontaneous forelimb use (SFU) was quantified and spontaneous vertical exploration (SVE) was quantified during 7 days post-TBI. SFU measures sensorimotor asymmetry (Schallert et al., 2000) whereas SVE measures not only vestibulomotor function but also time spent in exploratory activity.

[2] = Long-Evans, rat, in vivo
[3] = tested on: cells expressing SUR1-regulated NCCa-ATP channel; conditions: cited from earlier work
[4] = tested on: NCCa-ATP channels in bEnd.3 cells; test: Perforated-patch whole-cell recording of endothelial cells, Na azide-induced ATP depletion; format: cell-based, murine; conditions: 1 μM glibenclamide; endothelial cells exposed to hypoxic conditions
Description: Patch clamp of endothelial cells was performed using a nystatin-perforated patch technique, to maintain the metabolic integrity of the cells. The identity of the activated channel can be assessed by measurement of the “reversal potential”, the potential at which an ion channel current reverses from inward to outward. With physiologically relevant concentrations of ions intracellularly and extracellularly (high potassium inside, high sodium outside), the reversal potential can unambiguously distinguish between a K^+ channel current such as KATP, which reverses negative to −50 mV and a non-selective cation channel current such as NCCa-ATP, which reverses near 0 mV.
Cell culture. Endothelial cell cultures from human brain microvessels, human aorta (ScienCell Research Laboratories), and murine brain microvessels (bEnd.3; ATCC), were grown at low density using media and supplements recommended by suppliers.

[5] = Effect of glibenclamide doses on serum glucose; format: in vivo, rat; conditions: uninjured rats and rats with stroke and SCI; dose1-dose4
[6] = tested on: rats with hemi-cervical spinal cord contusion (SCI); test: SCI model: extravasated blood in cord (tissue blood); format: in vivo, rat
Description: (§2) SCI injury model. This study was performed in accordance with the guidelines of the Institutional Animal Care and Use Committee. Adult female Long-Evans rats (275-350 gm) were anesthetized (Ketamine, 60 mg/kg plus Xylazine, 7.5 mg/kg, i.p.). The dura at C4-5 was exposed via a left hemilaminectomy. A hemi-cervical spinal cord contusion was created using a blunt force impactor (1.3-mm impactor head driven by a 10 gm weight dropped vertically 25 mm) (Soblosky et al., 2001; Gensel et al., 2006). After SCI, animals were given 10 ml of glucose-free normal saline s.q. Rectal temperature was maintained at ˜37° C. using a servo-controlled warming blanket.
For in vivo gene suppression of SUR1, we used oligodeoxynucleotides that were phosphorothioated at 4 distal bonds to protect against endogenous nucleases (35).
Tissue blood. Rats were sacrificed at various times after SCI (n=5-11 rats/group), were perfused with heparinized saline to remove intravascular blood, and 5-mm segments of cord encompassing the lesion were homogenized and processed as described (Choudhri et al., 1997).

[7] = tested on: recombinant MMP-2 and MMP-9; test: Zymography, gelatinase activity of recombinant MMP; format: biochemical; conditions: glibenclamide 10 μM; MMP-inhibitor II 300 nM
Description: Zymography of recombinant MMP-2 and MMP-9 (Sigma) was performed as described (Sumii and Lo, 2002).

[8] = tested on: rats with hemi-cervical spinal cord contusion (SCI); test: SCI model: vimentin immunolabeling of capillaries; format: in vivo, rat; conditions: region of injury; glibenclamide 200 ng/h s.q. vs controls
Description: as §2, with “blanket. Blood gases and serum glucose 10-15 min post-SCI were: pO2, 95±6 mm Hg; pCO2, 46±3 mm Hg; pH, 7.33±0.01; glucose 258±17 mg/dl in controls and pO2, 96±7 mm Hg; pCO2, 45±2 mm Hg; pH, 7.37±0.01; glucose 242±14 mg/dl in glibenclamide-treated animals.” for “blanket.”
(§3) Drug delivery. […] During the course of the project, slightly different formulations of drug were used, with the best results obtained using stock solutions made by placing 50 mg (or 25 mg) of drug into 10 ml DMSO, and infusion solutions made by placing 400 μl (or 800 μl) stock into 4.6 ml (or 4.2 ml) unbuffered saline (0.9% NaCl) and adjusting the pH to ˜8.5 using 0.1 N NaOH.
Immunohistochemistry. […] Quantitative immunofluorescence was performed as described (Gerzanich et al., 2003).

[9] = tested on: rats with percussion-TBI; test: Percussion-TBI model: extravasated blood in brain homogenates; format: in vivo, rat
From the text: as §1

[10] = tested on: rats with hemi-cervical spinal cord contusion (SCI); test: SCI model: lesion size; format: in vivo, rat
Description: as §2, with “blanket. Blood gases and serum glucose 10-15 min post-SCI were: pO2, 95±6 mm Hg; pCO2, 46±3 mm Hg; pH, 7.33±0.01; glucose 258±17 mg/dl in controls and pO2, 96±7 mm Hg; pCO2, 45±2 mm Hg; pH, 7.37±0.01; glucose 242±14 mg/dl in glibenclamide-treated animals.” for “blanket.”
as §3
Lesion size. At 7 d post-SCI, cords were paraffin sectioned and stained with H&E. Lesion volumes were calculated from lesion areas measured on serial sections every 250 μm.
Immunohistochemistry. Cryosections were immunolabeled (Chen et al., 2003; Simard et al., 2006) using primary antibodies directed against SUR1 (Santa Cruz, C-16; 1:200; 1 h at RT, 48 h at 4° C.), SUR2 (Santa Cruz, H-80; 1:200; 1 h at RT, 48 h at 4° C.), GFAP (Sigma, C-9205; 1:500), and vimentin (Sigma, monoclonal CY3 conjugated; 1:100). Quantitative immunofluorescence was performed as described (Gerzanich et al., 2003).

[11] = tested on: rats with hemi-cervical spinal cord contusion (SCI); conditions: following SCI (Simard et al., 2007); cited from earlier work
[12] = tested on: rodent models of ischemic stroke; conditions: model of malignant cerebral edema; cited from earlier work

For `COc1ccc(Cl)cc1C(=O)NCCc1ccc(S(=O)(=O)NC(=O)NC2CCCCC2)cc1` [glibenclamide], the “spontaneous vertical exploration (SVE)” value ([1]; 1, 2 and 7 days post-TBI, vs vehicle controls) was “significantly greater”, the “spontaneous use of the forelimb contralateral to the injury” value ([1]; 2 days post-TBI) was 16.5±3.4% and the “time required to achieve 90% steady-state serum drug levels” value [2] was 3 h. The “oncotic (necrotic) cell death on ATP depletion” value [3] was “can be blocked”, the “block of Na azide-induced ohmic current” value [4] was “blocked” and the “effect of proposed doses on serum glucose” value [5] was “only the highest are hypoglycemogenic, but only mildly so”. For the same molecule, the “hemorrhage in cords (visual)” value ([6]; 24 h post-SCI, glibenclamide 200 ng/h s.q. vs vehicle) was “visibly less hemorrhage”, the “extravasated blood in tissue homogenates” value ([6]; during the 24 h after injury, glibenclamide 200 ng/h s.q. vs vehicle) was “little increase” and the PHN ([6]; following SCI (summary)) was “significantly reduced”. The “gelatinase activity of recombinant MMP” value [7] was “the same; also recorded: not affected”, the “appearance of vimentin(+) capillaries” value [8] was “elongated and appeared more normal” and the “appearance of tissue homogenates” value ([9]; 24 hr post-injury, vs vehicle) was “visibly less bloody”. The “increase in extravasated blood” value ([9]; later times (6 and 24 hr) post-TBI, vs vehicle) was “prevented further increases in blood”, the “volume of blood in brain homogenate” value ([9]; ½ hr post-injury, glibenclamide 200 ng/hr s.q. vs vehicle) was “did not affect” and the “lesions, gliosis and myelin (GFAP and myelin labeling)” value ([10]; 24 h post-SCI, vs controls) was “smaller lesions, less reactive gliosis and better myelin preservation”. For the same molecule, the “lesions on hematoxylin and eosin cross sections” value ([10]; 7 d post-SCI, vs controls) was “smaller lesions”, the “reduction in lesion volume” value ([10]; following SCI, compared to controls (summary)) was 3 fold and the “reduction in lesion volume” value [11] was 3 fold. The mortality [12] was “by half”.
